Test results taken from patent US4665095A, “Use of 2-[(3,5-dihalo-4-aminobenzyl)]imidazolines to stimulate alpha-1 adrenergic receptors and to treat nasal congestion” (Abbott Laboratories, priority 1985, dated 1987).
Structures can show the parent of a compound that is named as a salt.

Key:
[1] = Blood pressure and heart rate in anesthetized dogs following intranasal spray administration; format: in vivo, beagle dog
Procedure: (§1) a. Method Beagle dogs of either sex, weighing 9-12 kg were anesthetized with nembutal (30 mg/kg, intravenously) with supplemental doses administered throughout the experiment as required. The dogs were intubated with a cuffed endotracheal tube and were ventilated with room air by means of a Harvard respiration pump. Arterial blood pressure was recorded from a femoral artery using a Statham P23Gb pressure transducer. A tachygraphic recording of heart rate was obtained from the blood pressure signal.
(§2) A constant flow of air (2 liters/minute); provided by an anesthetic machine (CAECO) was administered into a nasal cavity through a 6 cm long plastic tube tapered to a diameter of 6 mm to fit into the right nostril. The air perfused the nasal cavity and exited through the mouth. The resistance to the air flow exerted by the large surface area of the nasal mucosa was measured as a nasal pressure in cm of water, using Model MP 45 Validyne transducer. […] Since the amount of drug administered in this way is extremely small and not directly measurable, the doses were calculated from the concentration of drug in the humidifier and volume of fluid used in each administration (in mg per dog). The nasal resistance, heart rate and blood pressure were monitored prior to and then 2 hours following the drug administration. […]

[2] = test system: nasal mucosa of rats; test: Effect on Nasal Irritation in Rats; format: in vivo, rat (CD strain)
Procedure: The product of Example 4 was dissolved in phosphate buffered normal saline and adjusted to a pH of approximately 7. The solution was prepared at the following concentrations: 0.05, 0.15, 0.5 and 1.5 percent. Groups of five male rats (CD strain) were administered each dose. The rats were approximately 5 weeks old at the start of treatment. Prior to dosing, ketaminehydrochloride was administered intraperitoneally to produce transient anesthesia to facilitate test compound administration. Rats in each group were given 0.04 mL/day of the appropriate solution for 14 days. The dosage was divided equally between both nostrils (i.e., 0.02 mL/nostril/day).

[3] = test system: nasal resistance in anesthetized dogs; test: Effect on airway (nasal) resistance in anesthetized dogs following intranasal spray administration; format: in vivo, beagle dog; conditions: aerosol, mg per dog
Procedure: as §1, §2

[4] = test system: nasal mucosa; conditions: background art; cited from earlier work
[5] = up to 1.5%, 0.04 mL/day intranasal, 14 days

For `Nc1c(Cl)cc(CC2=NCCN2)cc1Cl` [Example 4, 2-[(3,5-Dichloro-4-aminobenzyl)]imidazoline hydrochloride], the systematic hemodynamic effects ([1]; at the effective nasal decongestant dose) was “devoid of any systematic hemodynamic effects”, the “elevation of the blood pressure above the base level” value ([1]; highest tested dose, 1.65 mg) was “approximately 10%” and the nasal mucosal injury [2, 5] was “no nasal mucosal injury”. The systemic toxic effects [2, 5] was “no nasal mucosal injury or any systemic toxic effects” and the “threshold dose producing decrease of nasal resistance” value [3] was 0.00165 mg.
In the case of `c1ccc2c(CC3=NCCN3)cccc2c1` [naphazoline], the “irritation of the nasal mucosa” value [4] is listed as “often cause irritation of the nasal mucosa”.
For `Cc1cc(C(C)(C)C)c(O)c(C)c1CC1=NCCN1` [oxymetazoline], the “toxicity or nasal injury” value ([2]; 0.05% to 0.15% concentrations) was “did not cause any toxicity or nasal injury”, the nasal mucosal injury ([2]; 0.5% and 1.5% concentration) was “induced nasal mucosal injury” and the “systemic side effects and deaths” value ([2]; 0.5% and 1.5%, repeated administration) was “Systemic side effects and deaths occurred in most animals”. For the same compound, the “irritation of the nasal mucosa” value [4] was “often cause irritation of the nasal mucosa”.
